Data on one molecule can be found in patent publication US10960020B2, “Modulation of PCSK9 and LDLR through DRP1 inhibition” (THE BRIGHAM AND WOMEN'S HOSPITAL, INC., priority 2016, dated 2021).

Data set [1] has as its system PCSK9 secretion in HepG2 cells. Briefly: Secreted PCSK9 ELISA, HepG2 media. Conditions: HepG2, 24 hours; Mdivi-1 50 μM, pitavastatin 1 μM, T0901317 1 μM. Format: cell-based, human. (In general: In an ELISA, binding on a coated surface is turned into a signal by an enzyme label.)
Protocol: Pitavastatin and T0901317 were synthesized and provided by Kowa Company, Ltd. (Tokyo, Japan), and treated at a dose of 1 μM in all experiments. […] Mdivi-1 in DMSO vehicle was added at a concentration of 50 μM in all experiments. Mdivi-1 in DMSO vehicle was added to cell culture media in a 50 mL tube, vortexed hard for several minutes and then incubated at 37° C. prior to adding to cells to ensure the compound was fully solubilized.
Data set [2] deals with PCSK9 secretion in primary human hepatocytes. As to the kind of experiment: Secreted PCSK9 ELISA, primary human hepatocytes. Format: cell-based. The settings on record: Mdivi-1 50 μM, 24 hours. The method, then:
Pitavastatin and T0901317 were synthesized and provided by Kowa Company, Ltd. (Tokyo, Japan), and treated at a dose of 1 μM in all experiments. DMSO (vehicle; final concentration 0.01%) and Mdivi-1 (>99.85% purity) were purchased from Sigma (St. Louis, Mo.). Mdivi-1 in DMSO vehicle was added at a concentration of 50 μM in all experiments. Mdivi-1 in DMSO vehicle was added to cell culture media in a 50 mL tube, vortexed hard for several minutes and then incubated at 37° C. prior to adding to cells to ensure the compound was fully solubilized.
HepG2 cells were obtained from ATCC (Manassas, Va.), and cultured in EMEM with L-glutamine (ATCC) medium, 1% pen/strep, with and without 10% FBS (Thermo Fisher Scientific, Waltham, Mass.) in 12-well plates (Corning, Durham, N.C.). HepG2 cells were plated at a density of 60-70% prior to treatment to avoid clumping. […] Cell viability was assessed by Trypan Blue exclusion using live/dead cell counting on a Countess™ II LT automated cell counter (Thermo Fisher Scientific).
Mouse serum PCSK9 was measured using the mouse proprotein convertase 9/PCSK9 quantikine ELISA kit (MPC900, R&D Systems, Minneapolis, Minn.), and human liver cell secreted PCSK9 using the human proprotein convertase 9/PCSK9 DuoSet ELISA (DY3888, R&D Systems), both according to manufacturers' protocols.

A further data set deals with PCSK9 mRNA. Briefly: Real time PCR, HepG2 PCSK9 mRNA. Conditions: HepG2, Mdivi-1 50 μM, 24 hours. The data set is classed as cell-based, human. An excerpt: (§1) Human cells and mouse liver was homogenized with TriZolTM (Life Technologies, Grand Island, N.Y.) to isolate RNA. QuantiTectTM Reverse Transcription Kit (Qiagen, Hilden, Germany) was used for reverse transcription on total RNA. cDNA was generated using the Quanta gScriptTM cDNA Synthesis Kit (Bioscience Inc., Gaithersburg, Md.). mRNA levels were quantified on a 7900HT real-time PCR system (Thermo Fisher Scientific) using TaqManTM real-time PCR with the following probes: Hs02758991_g1 (human GAPDH); Mm99999915_g1 (mouse Gapdh); Hs00236329 m1 (human BCL2L1); Hs00247147_m1 (human DRP1); Hs00545399_m1 (human PCSK9); Mm01263610_m1 (mouse Pcsk9); Hs00168352_m1 (human HMGCR); […]); Hs00181192_m1 (human LDLR); Mm00440169_m1 (mouse Ldlr); Hs01088691_m1 (human SREBP1); Mm00550338_m1 (mouse Srebp1); Hs00231674_m1 (human SREBP1a); custom primer (human SREBP1c); Hs01081784_m1 (human SREBP2); Mm01306292_m1 (mouse Srebp2); Hs01005622_m1 (human FASN); […]); Hs00167041_m1 (human HNF1A); Mm00493434_m1 (mouse Hnf1a); Hs00171168 (human APOE); Hs01059118_m1 (human ABCA1); Hs01103582_s1 (human JUN). Mouse SREBP-1c was analyzed by SYBERTM green PCR with the following primers: [NT] All expression levels were normalized to GAPDH using the ΔΔCT method.
(In general: Real-time PCR tracks product formation cycle by cycle.)

The next data set relates to DRP1 protein. Briefly: Western blot, HepG2 DRP1 protein. The data set is classed as cell-based, human. Conditions: HepG2, Mdivi-1 50 μM, 24 hours.
In data set [3] the test system is HepG2 cells. Briefly: HepG2 viability by Trypan Blue exclusion. Format: cell-based, human. The settings on record: HepG2, Mdivi-1, 24 hours. The procedure:
HepG2 cells were obtained from ATCC (Manassas, Va.), and cultured in EMEM with L-glutamine (ATCC) medium, 1% pen/strep, with and without 10% FBS (Thermo Fisher Scientific, Waltham, Mass.) in 12-well plates (Corning, Durham, N.C.). HepG2 cells were plated at a density of 60-70% prior to treatment to avoid clumping. Freshly isolated primary human hepatocytes plated at 100% confluency on 12-well plates were obtained from Thermo Fisher Scientific. Three donors were used to obtain experimental data: person, person, and a person. Primary hepatocytes were treated immediately upon arrival and cultured in William's E medium with hepatic maintenance supplement pack (Thermo Fisher Scientific), 1% pen/strep (VWR; Radnor, Pa.), and 10% FBS (Thermo Fisher Scientific). Cell viability was assessed by Trypan Blue exclusion using live/dead cell counting on a Countess™ II LT automated cell counter (Thermo Fisher Scientific).

The next data set concerns cellular PCSK9 protein. As to the kind of experiment: Western blot, primary human hepatocyte cellular PCSK9 protein. The data set is classed as cell-based. The settings on record: primary human hepatocytes, Mdivi-1 50 μM, 24 hours.
The next data set has as its system SREBP-1c mRNA. As to the kind of experiment: Real time PCR, HepG2 SREBP-1c mRNA. The data set is classed as cell-based, human. The settings on record: HepG2, Mdivi-1 50 μM, 24 hours.
From the text: as §1

A further data set concerns LDLR protein. As to the kind of experiment: Western blot, HepG2 LDLR protein. Conditions: HepG2, 24 hours; Mdivi-1 50 μM, pitavastatin 1 μM, T0901317 1 μM. The data set is classed as cell-based, human. (Immunoblotting shows a protein as a band on a membrane.)
For the next data set, the system named is HMGCR. As to the kind of experiment: Western blot, HepG2 HMGCR protein. The settings on record: HepG2, Mdivi-1 50 μM, 24 hours. The data set is classed as cell-based, human.
Another data set concerns hepatocyte cytoskeleton. Briefly: Cytoskeleton gene panel and actin/microtubule confocal immunofluorescence. Conditions: HepG2 and primary human hepatocytes, Mdivi-1 50 μM, 24 hours. The data set is classed as cell-based.
Data set [4] deals with HepG2 cells. As to the kind of experiment: Mitochondrial membrane potential by TMRE, HepG2. Format: cell-based, human. Conditions: HepG2, Mdivi-1 50 μM, 24 hours. The method, then: Mitochondrial membrane potential was assessed by TMRE reagent (Abcam) as previously described^21.
For the next data set, the system named is naïve wild type rodents. The settings on record: up to ten weeks after treatment, Mdivi-1 injection; cited from earlier work.

“Also recorded” adds a separate entry of the source.

Protocol for hepatocyte cytoskeleton: Filamentous actin was stained using CytoPainter Phallodin iFluor 555 Reagent (2 μl phalloidin in 2000 μl PBS with 1% BSA; Abcam), with a 60 minute incubation at room temperature. Slides were incubated with anti-alpha tubulin (1:200, Abcam, ab15246), PDI (1:100; 3501, Cell Signaling Technology), and anti-mitochondria (ab92824, Abcam) for 2 hours at room temperature or overnight at 4° C., followed by incubation with Alexa Fluor 488-labelled secondary antibody (1:200, Thermo Fisher Scientific). Nuclear staining was performed with DAPI (Thermo Fisher Scientific). Prior to visualization 200 μL PBS was added to each well. Liver tissue and cells were examined using a confocal microscope Al (Nikon Instruments Inc., Melville, N.Y.), and all images were processed with Elements 3.20 software (Nikon Instruments Inc.). Human cells and mouse liver was homogenized with TriZolTM (Life Technologies, Grand Island, N.Y.) to isolate RNA. […]

In the case of `COc1cc(-n2c(S)nc3ccccc3c2=O)c(Cl)cc1Cl` [Mdivi-1, 3-(2,4-Dichloro-5-methoxyphenyl)-2,3-dihydro-2-thioxo-4(1H)-quinazolinone], the “PCSK9 secretion change by ELISA” value in data set [1] is −76.1%. Besides, the “PCSK9 secretion by ELISA” value in data set [2] is given as “reduced”. Besides, the “Cellular PCSK9 mRNA” value in the data set with PCSK9 mRNA was “reduced; also recorded: strongly reduced”. The DRP1 protein content result in the data set on DRP1 protein was “without altering”. In the data set on HepG2 cells [3], the cell viability result is “without altering”. Also, in the data set on cellular PCSK9 protein, the “cellular PCSK9 protein” value is “without altering”. The “SREBP-1c mRNA” value in the data set with SREBP-1c mRNA is on record as “strongly reduced”. Besides, the “HepG2 LDLR protein increase” value with LDLR protein was 5.8 fold. For the same molecule, the HMGCR abundance increase entry in the data set on HMGCR was “not”. In the data set with hepatocyte cytoskeleton, the hepatocyte cytoskeleton entry is reported as “did not alter”. Further, in the data set with HepG2 cells [4], the “Mitochondrial function, assessed by mitochondrial membrane potential” value is “not noticeably different”. The “abnormal phenotypes or cytotoxicity” value in the data set with naïve wild type rodents was “no abnormal phenotypes or cytotoxicity”.
